# Earlier results as cited in patent publication US10865157B2, “Methods and compositions for increasing the yield of, and beneficial chemical composition of, certain plants” (B.K. Consultants, Inc., priority 2014, dated 2020).
# Settings: similarly sized particles
structure (smiles),measurement,value
"CC(=O)Oc1ccccc1C(=O)O [non-crystalline aspirin, aspirin]",solubility in water relative to the crystal form,2 to 8 times
